Data reported in ChEMBL document CHEMBL1201862, “PubChem BioAssay data set” (2004).
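In this assay, cells in 96-well plates receive the compound at five concentrations for 48 hours. Endpoints are linearly interpolated between the surrounding concentrations. At the GI50, growth is halved.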 The source made the active and inactive calls. Rule as the data show it: active = GI50 up to about 1.1 µM and inactive = higher.

Columns and labels:
Assay in all cases: NCI anticancer screen, dose series, 48 h
[1] = test system: BT-549
[2] = test system: NCI-H460
[3] = test system: CCRF-CEM
[4] = test system: RXF 393
[5] = test system: MDA-MB-435
[6] = test system: TK-10
[7] = test system: HCT-116
[8] = test system: SF-268
[9] = test system: SF-539
[10] = test system: NCI-H23
[11] = test system: OVCAR-5
[12] = test system: OVCAR-4
[13] = test system: A498
[14] = test system: SNB-75
[15] = test system: ACHN
[16] = test system: HL-60
[17] = test system: MOLT-4
[18] = test system: M14
[19] = test system: NCI-H522
[20] = test system: LOX IMVI

SMILES | GI50 [1] | GI50 [2] | GI50 [3] | GI50 [4] | GI50 [5] | GI50 [6] | GI50 [7] | GI50 [8] | GI50 [9] | GI50 [10] | GI50 [11] | GI50 [12] | GI50 [13] | GI50 [14] | GI50 [15] | GI50 [16] | GI50 [17] | GI50 [18] | GI50 [19] | GI50 [20]
NC1CC(=O)c2csc(Cl)c21 (stereo not given) | 17.7 µM (inactive) | 22.5 µM (inactive) | 0.778 µM (active) | 5.78 µM (inactive) | 12.8 µM (inactive) | 11.5 µM (inactive) | 3.86 µM (inactive) | 10.1 µM (inactive) | 2.23 µM (inactive) | 20.7 µM (inactive) | 19.6 µM (inactive) | 25.9 µM (inactive) | 17.1 µM (inactive) | 17.3 µM (inactive) | 5.33 µM (inactive) | 2.72 µM (inactive) | 1.48 µM (inactive) | 8.99 µM (inactive) | 1.72 µM (inactive) | 4 µM (inactive)
O=C(/C=C1\Nc2ccc([N+](=O)[O-])cc2N\C1=C/C(=O)c1ccc(F)cc1)c1ccc(F)cc1 | 31.1 µM (inactive) | 46.3 µM (inactive) | 8.81 µM (inactive) | 17.9 µM (inactive) | > 100 µM (inactive) | 15.3 µM (inactive) | 32.5 µM (inactive) | 9.71 µM (inactive) | 19.6 µM (inactive) | 19.9 µM (inactive) | > 100 µM (inactive) | > 100 µM (inactive) | 19.6 µM (inactive) | 15.7 µM (inactive) | 13.9 µM (inactive) | 20.7 µM (inactive) | 17.6 µM (inactive) | > 100 µM (inactive) | 10.5 µM (inactive) | > 100 µM (inactive)
COc1cc2oc3c(c(=O)c2c(O)c1/C=C/C(C)C)CCC(C)(C)Oc1cc(O)ccc1-3 | 17.1 µM (inactive) | 8.41 µM (inactive) | 17.3 µM (inactive) | 11.5 µM (inactive) | 16.1 µM (inactive) | 13.8 µM (inactive) | 18.2 µM (inactive) | 15.6 µM (inactive) | 13.1 µM (inactive) | 16 µM (inactive) | 16.6 µM (inactive) | 14.3 µM (inactive) | 19.1 µM (inactive) | 16 µM (inactive) | 14.1 µM (inactive) | 13.1 µM (inactive) | 13 µM (inactive) | 10.8 µM (inactive) | 18.1 µM (inactive) | 9.14 µM (inactive)
CC(=O)O[C@H]1C(=O)[C@@]2(C)[C@H]([C@H](OC(=O)c3ccccc3)[C@]3(O)C[C@H](OC(=O)[C@H](O)[C@@H](NC(=O)c4ccccc4)c4ccc5ccccc5c4)C(C)=C1C3(C)C)[C@]1(OC(C)=O)CO[C@@H]1C[C@@H]2O | 0.0807 µM (active) | 0.0706 µM (active) | 0.0287 µM (active) | 0.219 µM (active) | 0.00993 µM (active) | 0.506 µM (active) | 0.0266 µM (active) | 0.0239 µM (active) | 0.0336 µM (active) | 0.0912 µM (active) | 0.153 µM (active) | 0.841 µM (active) | 0.467 µM (active) | 0.0594 µM (active) | 1.51 µM (inactive) | 0.0107 µM (active) | 0.0264 µM (active) | 0.0466 µM (active) | 0.0524 µM (active) | 0.0887 µM (active)
c1ccc(/C(=N/Nc2ccccn2)c2cccnn2)cc1 | 13.9 µM (inactive) | 1.34 µM (inactive) | 0.767 µM (active) | 15.7 µM (inactive) | 4.73 µM (inactive) | 98.6 µM (inactive) | 2.28 µM (inactive) | 0.853 µM (active) | 2.74 µM (inactive) | 2.91 µM (inactive) | 7.73 µM (inactive) | > 84.5 µM (inactive) | > 25.3 µM (inactive) | 2.78 µM (inactive) | 0.998 µM (active) | 3.61 µM (inactive) | 0.632 µM (active) | 1.45 µM (inactive) | 0.441 µM (active) | 2.07 µM (inactive)
O=C1N/C(=N/N=C/c2cccs2)N/C1=C\c1ccco1 | 70 µM (inactive) | 23.2 µM (inactive) | 12 µM (inactive) | 90.6 µM (inactive) | 20.6 µM (inactive) | > 100 µM (inactive) | 35.5 µM (inactive) | 19.8 µM (inactive) | 28.9 µM (inactive) | 45.3 µM (inactive) | > 100 µM (inactive) | > 100 µM (inactive) | 17.1 µM (inactive) | 84.7 µM (inactive) | > 100 µM (inactive) | 31.4 µM (inactive) | > 100 µM (inactive) | 8.57 µM (inactive) | 7.98 µM (inactive) | 21.6 µM (inactive)
CCCCc1nc(C)oc1C(C)C | > 100 µM (inactive) | > 100 µM (inactive) | > 100 µM (inactive) | > 100 µM (inactive) | > 100 µM (inactive) | > 100 µM (inactive) | > 100 µM (inactive) | > 100 µM (inactive) | > 100 µM (inactive) | > 100 µM (inactive) | > 100 µM (inactive) | > 100 µM (inactive) | > 100 µM (inactive) | > 100 µM (inactive) | > 100 µM (inactive) | > 100 µM (inactive) | > 100 µM (inactive) | > 100 µM (inactive) | > 100 µM (inactive) | > 100 µM (inactive)
CCOP(=O)(/C=C\n1ccc(=O)[nH]c1=O)OCC | > 100 µM (inactive) | > 10 µM (inactive) | > 100 µM (inactive) | > 100 µM (inactive) | > 100 µM (inactive) | > 100 µM (inactive) | > 100 µM (inactive) | > 100 µM (inactive) | > 100 µM (inactive) | > 100 µM (inactive) | > 100 µM (inactive) | > 100 µM (inactive) | > 100 µM (inactive) | > 100 µM (inactive) | > 100 µM (inactive) | > 100 µM (inactive) | > 100 µM (inactive) | > 100 µM (inactive) | > 100 µM (inactive) | > 100 µM (inactive)
C=C(C)[C@@H]1CC=C(CO)CC1 [PERILLYL ALCOHOL] | > 10 µM (inactive) | 454 µM (inactive) | 101 µM (inactive) | 93.8 µM (inactive) | > 10 µM (inactive) | 324 µM (inactive) | 96.2 µM (inactive) | 84.1 µM (inactive) | 501 µM (inactive) | 465 µM (inactive) | 169 µM (inactive) | 515 µM (inactive) | 548 µM (inactive) | 56 µM (inactive) | 121 µM (inactive) | 50.1 µM (inactive) | 72.3 µM (inactive) | 710 µM (inactive) | 344 µM (inactive) | 195 µM (inactive)
O=C(O)c1cc2c(cc1CC(Cc1ccccc1)C(=O)O)CCC2 (stereo not given) | > 100 µM (inactive) | > 100 µM (inactive) | > 100 µM (inactive) | > 100 µM (inactive) | > 100 µM (inactive) | > 100 µM (inactive) | > 100 µM (inactive) | > 100 µM (inactive) | > 100 µM (inactive) | > 100 µM (inactive) | > 100 µM (inactive) | > 100 µM (inactive) | > 100 µM (inactive) | > 100 µM (inactive) | > 100 µM (inactive) | > 100 µM (inactive) | > 100 µM (inactive) | > 100 µM (inactive) | > 100 µM (inactive) | > 100 µM (inactive)
CN1CCN(c2n[nH]c(=O)c3c2nnn3C2CCCCC2)CC1 | > 100 µM (inactive) | > 100 µM (inactive) | > 100 µM (inactive) | > 100 µM (inactive) | > 100 µM (inactive) | > 100 µM (inactive) | > 100 µM (inactive) | > 100 µM (inactive) | > 100 µM (inactive) | > 100 µM (inactive) | > 100 µM (inactive) | > 100 µM (inactive) | > 100 µM (inactive) | > 100 µM (inactive) | > 100 µM (inactive) | > 100 µM (inactive) | > 100 µM (inactive) | > 100 µM (inactive) | > 100 µM (inactive) | > 100 µM (inactive)
Cc1ccc2cccc3c2c1CC1(C3=O)S(=O)(=O)OCCOS1(=O)=O | > 100 µM (inactive) | > 100 µM (inactive) | > 100 µM (inactive) | > 100 µM (inactive) | > 100 µM (inactive) | > 100 µM (inactive) | > 100 µM (inactive) | > 100 µM (inactive) | > 100 µM (inactive) | > 100 µM (inactive) | > 100 µM (inactive) | > 100 µM (inactive) | > 100 µM (inactive) | > 100 µM (inactive) | > 100 µM (inactive) | > 100 µM (inactive) | > 100 µM (inactive) | > 100 µM (inactive) | > 100 µM (inactive) | > 100 µM (inactive)
CN(C)CC1CCC(CN(C)C)C(=O)C1=O (stereo not given) | 8.67 µM (inactive) | 18.8 µM (inactive) | 1.73 µM (inactive) | 1.82 µM (inactive) | 17.8 µM (inactive) | 3.6 µM (inactive) | 2.4 µM (inactive) | 6.75 µM (inactive) | 7.18 µM (inactive) | 14.6 µM (inactive) | 16.5 µM (inactive) | 7.8 µM (inactive) | 16.8 µM (inactive) | 14.7 µM (inactive) | 4.85 µM (inactive) | 2.36 µM (inactive) | 2.03 µM (inactive) | 5.52 µM (inactive) | 0.946 µM (active) | 8.63 µM (inactive)
CCOC(=O)/C(C(=O)Nc1cccc(C(F)(F)F)c1)=C(/N)N1CCCC1 | > 100 µM (inactive) | > 100 µM (inactive) | > 100 µM (inactive) | 20.9 µM (inactive) | > 100 µM (inactive) | > 100 µM (inactive) | > 100 µM (inactive) | 54.3 µM (inactive) | 20.1 µM (inactive) | > 100 µM (inactive) | > 100 µM (inactive) | > 100 µM (inactive) | 41.6 µM (inactive) | 23.4 µM (inactive) | > 100 µM (inactive) | > 100 µM (inactive) | > 100 µM (inactive) | > 100 µM (inactive) | > 100 µM (inactive) | > 100 µM (inactive)
